Reference: PubChem BioAssay (NCI)
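Values below derive from 48-hour exposures of cells grown in 96-well plates, with endpoints linearly interpolated between the two concentrations bracketing the appropriate inhibition level. Definition used: TGI = concentration required for complete inhibition of growth.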

What was measured:
Assay in all cases: NCI anticancer screen, dose series, 48 h
[1] = system: A498 renal
[2] = system: A549 NSCLC
[3] = system: ACHN renal
[4] = system: BT-549 breast
[5] = system: CAKI-1 renal
[6] = system: CCRF-CEM leukemia
[7] = system: COLO 205 colon
[8] = system: DU-145 prostate
[9] = system: EKVX NSCLC
[10] = system: HCT-116 colon
[11] = system: HCT-15 colon
[12] = system: HL-60(TB) leukemia
[13] = system: HOP-62 NSCLC
[14] = system: HOP-92 NSCLC
[15] = system: HS 578T breast
[16] = system: HT29 colon
[17] = system: IGROV1 ovarian
[18] = system: K-562 leukemia
[19] = system: KM12 colon
[20] = system: LOX IMVI melanoma
[21] = system: M14 melanoma
[22] = system: MALME-3M melanoma
[23] = system: MCF7 breast
[24] = system: MDA-MB-231 breast
[25] = system: MDA-MB-435
[26] = system: MDA-N
[27] = system: MOLT-4 leukemia
[28] = system: NCI-H226 lung
[29] = system: NCI-H23 lung
[30] = system: NCI-H460 lung
[31] = system: NCI-H522 lung
[32] = system: NCI/ADR-RES ovarian
[33] = system: OVCAR-3 ovarian
[34] = system: OVCAR-4 ovarian
[35] = system: OVCAR-5 ovarian
[36] = system: OVCAR-8 ovarian
[37] = system: PC-3 prostate
[38] = system: RPMI-8226 leukemia
[39] = system: RXF 393 renal
[40] = system: SF-268 CNS
[41] = system: SF-295 CNS
[42] = system: SF-539 CNS
[43] = system: SK-MEL-2 melanoma
[44] = system: SK-MEL-28 melanoma
[45] = system: SK-MEL-5 melanoma
[46] = system: SK-OV-3 ovarian
[47] = system: SN12C renal
[48] = system: SNB-19 CNS
[49] = system: SNB-75 CNS
[50] = system: SW-620 colon
[51] = system: T-47D breast
[52] = system: TK-10 renal
[53] = system: U251 CNS
[54] = system: UACC-257 melanoma
[55] = system: UACC-62 melanoma
[56] = system: UO-31 renal

Q: With CC1(C)N=C(c2ccccc2)SC12S[C@@H]1CCCC[C@H]1S2 as the compound, how does the TGI [1] read?
A: 33.9 µM

Q: What about the TGI [2] of the same compound?
A: > 100 µM

Q: What about the TGI [3] of the same compound?
A: > 100 µM

Q: What about the TGI [4] of the same compound?
A: > 100 µM

Q: What about the TGI [5] of the same compound?
A: > 100 µM

Q: What about the TGI [6] of the same compound?
A: > 100 µM

Q: What about the TGI [7] of the same compound?
A: > 100 µM

Q: What about the TGI [8] of the same compound?
A: > 100 µM

Q: And the TGI [9]?
A: > 100 µM

Q: What about the TGI [10] of the same compound?
A: > 100 µM

Q: What about the TGI [11] of the same compound?
A: > 100 µM

Q: And the TGI [12]?
A: > 100 µM

Q: And the TGI [13]?
A: > 100 µM

Q: And the TGI [14]?
A: > 100 µM

Q: What about the TGI [15] of the same compound?
A: 16.8 µM

Q: And the TGI [16]?
A: > 100 µM

Q: And the TGI [17]?
A: > 100 µM

Q: And the TGI [18]?
A: > 100 µM

Q: And the TGI [19]?
A: > 100 µM

Q: What about the TGI [20] of the same compound?
A: > 100 µM

Q: And the TGI [21]?
A: > 100 µM

Q: What about the TGI [22] of the same compound?
A: > 100 µM

Q: What about the TGI [23] of the same compound?
A: > 100 µM

Q: What about the TGI [24] of the same compound?
A: > 100 µM

Q: And the TGI [25]?
A: > 100 µM

Q: What about the TGI [26] of the same compound?
A: 93.5 µM

Q: And the TGI [27]?
A: > 100 µM

Q: And the TGI [28]?
A: > 100 µM

Q: What about the TGI [29] of the same compound?
A: 31.3 µM

Q: And the TGI [30]?
A: > 100 µM

Q: And the TGI [31]?
A: > 100 µM

Q: What about the TGI [32] of the same compound?
A: > 100 µM

Q: What about the TGI [33] of the same compound?
A: > 100 µM

Q: What about the TGI [34] of the same compound?
A: > 100 µM

Q: What about the TGI [35] of the same compound?
A: > 100 µM

Q: What about the TGI [36] of the same compound?
A: > 100 µM

Q: And the TGI [37]?
A: > 100 µM

Q: What about the TGI [38] of the same compound?
A: > 100 µM

Q: And the TGI [39]?
A: > 100 µM

Q: And the TGI [40]?
A: > 100 µM

Q: And the TGI [41]?
A: > 100 µM

Q: What about the TGI [42] of the same compound?
A: > 100 µM

Q: And the TGI [43]?
A: > 100 µM

Q: What about the TGI [44] of the same compound?
A: > 100 µM

Q: What about the TGI [45] of the same compound?
A: 54.5 µM

Q: And the TGI [46]?
A: > 100 µM

Q: What about the TGI [47] of the same compound?
A: > 100 µM

Q: What about the TGI [48] of the same compound?
A: 32.1 µM

Q: And the TGI [49]?
A: > 100 µM

Q: What about the TGI [50] of the same compound?
A: > 100 µM

Q: And the TGI [51]?
A: > 100 µM

Q: And the TGI [52]?
A: > 100 µM

Q: And the TGI [53]?
A: > 100 µM

Q: What about the TGI [54] of the same compound?
A: > 100 µM

Q: And the TGI [55]?
A: > 100 µM

Q: What about the TGI [56] of the same compound?
A: > 100 µM
